# According to the supplement of paper PMC10307832:
# Legend:
# Test in all cases: relative viability (nuclei count vs DMSO), 5 days (fraction); higher = more cells survive
# Adavosertib + Lapatinib = compound: C=CCn1c(=O)c2cnc(Nc3ccc(N4CCN(C)CC4)cc3)nc2n1-c1cccc(C(C)(C)O)n1 [Adavosertib] + CS(=O)(=O)CCNCc1ccc(-c2ccc3ncnc(Nc4ccc(OCc5cccc(F)c5)c(Cl)c4)c3c2)o1 [Lapatinib] (partner 2 µM)
# Outline: (§1)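 Lung cancer cell lines, seeded in 1536-well plates, were treated the following day by pin tool with a single drug or with five library-drug doses (not always all listed) in √10 steps on top of a fixed anchor-drug dose. Cells were fixed and nuclei stained in one step after 5 days, and nuclei were counted. Relative viability is the nuclei count for treated wells divided by that for vehicle wells, reported as medians of duplicate plates.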
# Nelarabine + Phenformin = compound: COc1nc(N)nc2c1ncn2[C@@H]1O[C@H](CO)[C@@H](O)[C@@H]1O [Nelarabine] + N=C(N)NC(=N)NCCc1ccccc1 [Phenformin] (partner 250 µM)
# Outline: as §1
# Nelarabine + Palbociclib = compound: COc1nc(N)nc2c1ncn2[C@@H]1O[C@H](CO)[C@@H](O)[C@@H]1O [Nelarabine] + CC(=O)c1c(C)c2cnc(Nc3ccc(N4CCNCC4)cn3)nc2n(C2CCCC2)c1=O [Palbociclib] (partner 0.5 µM)
# Outline: as §1
# Nelarabine + Luminespib = compound: COc1nc(N)nc2c1ncn2[C@@H]1O[C@H](CO)[C@@H](O)[C@@H]1O [Nelarabine] + CCNC(=O)c1noc(-c2cc(C(C)C)c(O)cc2O)c1-c1ccc(CN2CCOCC2)cc1 [Luminespib] (partner 0.01 µM)
# Outline: as §1
Cell Line,relative viability (Adavosertib + Lapatinib; first compound 0.01 µM),relative viability (Adavosertib + Lapatinib; first compound 0.03162 µM),relative viability (Adavosertib + Lapatinib; first compound 0.1 µM),relative viability (Adavosertib + Lapatinib; first compound 0.3162 µM),relative viability (Nelarabine + Phenformin; first compound 0.01 µM),relative viability (Nelarabine + Phenformin; first compound 0.03162 µM),relative viability (Nelarabine + Phenformin; first compound 0.1 µM),relative viability (Nelarabine + Phenformin; first compound 0.3162 µM),relative viability (Nelarabine + Phenformin; first compound 1 µM),relative viability (Nelarabine + Palbociclib; first compound 0.01 µM),relative viability (Nelarabine + Palbociclib; first compound 0.03162 µM),relative viability (Nelarabine + Palbociclib; first compound 0.1 µM),relative viability (Nelarabine + Palbociclib; first compound 0.3162 µM),relative viability (Nelarabine + Palbociclib; first compound 1 µM),relative viability (Nelarabine + Luminespib; first compound 0.01 µM),relative viability (Nelarabine + Luminespib; first compound 0.03162 µM),relative viability (Nelarabine + Luminespib; first compound 0.1 µM),relative viability (Nelarabine + Luminespib; first compound 0.3162 µM),relative viability (Nelarabine + Luminespib; first compound 1 µM)
NCI-H1915,0.984,0.923,1.02,0.959,0.378,0.315,0.367,0.371,0.367,0.598,0.531,0.533,0.522,0.525,1.31,0.87,0.912,0.841,0.988
NCI-H1395,0.824,1.31,1.03,0.78,0.487,0.401,0.474,0.455,0.423,0.543,0.559,0.69,0.566,0.622,0.666,0.691,0.773,0.707,0.987
LOU-NH91,0.74,0.804,0.734,0.674,0.49,0.782,0.741,0.768,0.751,0.576,0.47,0.524,0.618,0.578,0.392,0.45,0.354,0.346,0.356
SW 1573,1.22,1.36,1.14,1.08,0.548,0.422,0.406,0.356,0.389,0.465,0.382,0.41,0.399,0.338,0.168,0.174,0.164,0.34,0.229
NCI-H23,0.935,1.25,0.855,0.328,0.778,0.766,0.684,0.847,0.79,0.54,0.51,0.43,0.503,0.634,0.226,0.201,0.23,0.225,0.21
NCI-H1993,0.798,0.865,0.894,0.8,0.527,0.486,0.448,0.499,0.503,0.721,0.516,0.692,0.547,0.647,0.861,0.721,0.917,0.965,0.798
HARA,0.648,0.858,0.648,0.729,0.62,0.488,0.422,0.579,0.505,0.202,0.253,0.228,0.273,0.287,0.77,0.84,1,0.863,0.749
COR-L 105,0.361,0.428,0.373,0.349,0.497,0.594,0.473,0.454,0.458,0.383,0.354,0.43,0.385,0.421,0.701,0.822,0.792,0.669,0.904
HCC-44,0.976,1.04,1.08,1.14,0.194,0.157,0.173,0.167,0.185,0.985,0.955,0.978,0.984,0.944,1.33,1.34,0.965,1.1,1.24
LXF-289,0.905,0.894,0.906,0.922,0.532,0.574,0.526,0.571,0.524,0.708,0.548,0.62,0.625,0.59,0.792,0.655,0.659,0.832,0.578
NCI-H727,0.872,0.859,0.852,1.02,0.604,0.589,0.642,0.508,0.682,0.659,0.602,0.663,0.624,0.608,0.305,0.377,0.351,0.469,0.298
NCI-H2085,0.743,0.813,0.86,0.836,0.73,0.703,0.669,0.69,0.767,0.479,0.437,0.479,0.459,0.431,0.498,0.48,0.427,0.518,0.434
A-427,1.01,1.02,1.07,0.999,0.315,0.22,0.306,0.289,0.236,0.528,0.533,0.56,0.533,0.53,0.96,0.982,0.721,0.964,0.983
LC-2-ad,0.964,0.954,0.991,0.906,0.618,0.613,0.637,0.54,0.536,0.525,0.495,0.475,0.544,0.522,1.1,1.09,0.932,1.08,0.916
LU99A,1.02,0.96,0.956,0.639,0.88,0.767,0.837,0.864,0.854,0.48,0.34,0.429,0.43,0.399,0.239,0.235,0.339,0.282,0.279
201T,1.02,1.01,1.02,1.09,0.459,0.416,0.451,0.433,0.417,0.391,0.352,0.409,0.389,0.351,1.09,1.09,1.03,1.07,1.04
NCI-H650,0.856,1.28,1.1,0.808,0.505,0.425,0.46,0.457,0.461,0.338,0.283,0.297,0.301,0.363,0.857,0.726,0.759,0.708,0.718

Cell Line,relative viability (Adavosertib + Lapatinib; first compound 0.01 µM),relative viability (Adavosertib + Lapatinib; first compound 0.03162 µM),relative viability (Adavosertib + Lapatinib; first compound 0.1 µM),relative viability (Adavosertib + Lapatinib; first compound 0.3162 µM),relative viability (Nelarabine + Phenformin; first compound 0.01 µM),relative viability (Nelarabine + Phenformin; first compound 0.03162 µM),relative viability (Nelarabine + Phenformin; first compound 0.1 µM),relative viability (Nelarabine + Phenformin; first compound 0.3162 µM),relative viability (Nelarabine + Phenformin; first compound 1 µM),relative viability (Nelarabine + Palbociclib; first compound 0.01 µM),relative viability (Nelarabine + Palbociclib; first compound 0.03162 µM),relative viability (Nelarabine + Palbociclib; first compound 0.1 µM),relative viability (Nelarabine + Palbociclib; first compound 0.3162 µM),relative viability (Nelarabine + Palbociclib; first compound 1 µM),relative viability (Nelarabine + Luminespib; first compound 0.01 µM),relative viability (Nelarabine + Luminespib; first compound 0.03162 µM),relative viability (Nelarabine + Luminespib; first compound 0.1 µM),relative viability (Nelarabine + Luminespib; first compound 0.3162 µM),relative viability (Nelarabine + Luminespib; first compound 1 µM)
NCI-H2023,0.787,0.735,0.599,0.344,0.395,0.357,0.4,0.371,0.371,0.321,0.369,0.348,0.336,0.302,1.07,0.596,0.905,0.834,0.7
LK-2,0.866,1.05,1.01,0.97,0.433,–,0.236,0.387,0.472,1.04,–,0.772,0.835,0.684,0.161,–,0.178,0.146,0.173
BEN,0.751,0.728,0.801,0.948,0.264,0.269,0.276,0.221,0.273,0.532,0.452,0.497,0.491,0.494,0.323,0.131,0.371,0.488,0.331
EPLC-272H,0.745,0.958,0.844,0.739,0.236,0.291,0.272,0.265,0.291,0.337,0.263,0.236,0.337,0.28,0.137,0.483,0.446,0.259,0.301
NCI-H1975,0.878,0.805,0.895,0.667,0.472,0.389,0.4,0.399,0.432,0.656,0.526,0.747,0.726,0.649,0.237,0.244,0.169,0.198,0.464
HCC-827,0.198,0.2,0.215,0.191,0.373,0.378,0.308,0.352,0.443,0.537,0.504,0.454,0.378,0.397,0.889,0.68,0.644,0.511,0.385
LCLC-97TM1,–,0.703,0.804,0.686,0.506,0.446,0.339,0.426,0.42,–,–,0.299,0.229,0.265,0.912,0.688,0.856,0.713,0.78
NCI-H2126,0.736,0.781,0.764,0.829,0.593,0.545,0.51,0.508,0.517,0.347,0.352,0.326,0.353,0.403,1.04,0.951,0.822,0.892,0.977
PC-14,0.344,0.319,0.297,0.407,0.645,0.46,0.67,0.556,0.447,0.705,0.53,0.582,0.601,0.706,0.145,0.177,0.118,0.178,0.151
NCI-H1355,0.955,1.02,0.966,0.948,0.442,0.413,0.418,0.433,0.455,0.398,0.316,0.401,0.401,0.447,0.763,0.618,0.667,0.629,0.713
NCI-H460,1.11,0.978,1.04,0.83,1.35,0.648,0.646,0.611,0.482,0.212,0.213,0.144,0.162,0.181,0.0293,0.0328,0.0352,0.0376,0.0317
NCI-H1651,0.956,0.715,0.752,0.682,0.362,0.329,0.46,0.353,0.355,0.566,0.596,0.553,0.512,0.522,1.01,0.953,0.822,0.985,0.856
NCI-H1650,0.75,0.884,0.747,0.379,0.39,0.427,0.379,0.436,0.445,0.255,0.317,0.337,0.32,0.266,0.195,0.181,0.225,0.234,0.204
NCI-H1734,1.07,1.07,1.07,0.825,0.446,0.388,0.412,0.366,0.38,0.387,0.305,0.334,0.368,0.326,0.193,0.161,0.193,0.209,0.187
NCI-H661,0.542,0.601,0.514,0.363,0.282,0.277,0.276,0.274,0.258,0.386,0.401,0.402,0.403,0.422,1.04,1.09,0.928,0.914,0.911
H3255,0.25,0.251,0.219,0.203,–,0.361,0.341,0.321,0.337,0.327,0.292,0.311,0.315,0.355,–,0.889,1,0.853,0.737
NCI-H1437,0.83,0.778,0.831,0.812,0.304,0.309,0.318,0.302,0.325,0.342,0.35,0.307,0.338,0.302,1.3,1.02,1.13,1.21,1.02
